Reference: US8343959B2, “N-phenyl-(piperazinyl or homopiperazinyl)-benzenesulfonamide or benzenesulfonyl-phenyl-(piperazine or homopiperazine) compounds suitable for treating disorders that respond to modulation of the serotonin 5-HT6 receptor” (Abbott GmbH & Co. KG, priority 2009, dated 2013)
Counter-ions that a name gives are not always drawn.

Target: T1, h-5-HT6 receptor (Homo sapiens, UniProt P50406)
T1 construct: expressed in transfected cells
Experiment: 5-HT6 receptor binding assay (displacement of [3H]-LSD)
Details: not given
Method: Displacement of Radioligands Binding to The Following Cloned Human Receptors
Cells from stable clonal cell lines expressing the corresponding receptor (5-HT6, α1-adrenergic, dopamine D2 or histamine H1 receptors) were washed with PBS (w/o Ca^++, Mg^++) and harvested in PBS with 0.02% EDTA. The cells were collected by centrifugation at 500 g for 10 min. at 4° C., washed with PBS and centrifuged (500 g, 10 min. 4° C.). The pellets were stored at −80° C. until use. For membrane preparation, the thawed cell pellet was resuspended in ice-cold sucrose buffer (0.25 M sucrose, 10 mM Hepes (pH 7.4), 1 mM Phenylmethylsulfonyl fluoride (PMSF) in DMSO, 5 μg/ml Pepstatin-A, 3 mM EDTA, 0.025% Bacitracin) and homogenized with a Branson Sonifier W-250 (Settings: Timer 4; Output Control 3; Duty Cycle constant; 2 to 3 cycles). Cell disruption was checked with the aid of a microscope. Remaining unbroken cells were pelleted at 1.000 g for 10 min. at 4° C. The sucrose buffer supernatant was then centrifuged at 60.000 g for 1 h at 4° C. (Beckman Ultrazentrifuge XL 80). The pellet was resuspended in 30 ml ice-cold Tris buffer (20 mM TRIS (pH 7.4), 5 μg/ml Pepstatin A, 0.1 mM PMSF, 3 mM EDTA) by pipetting through a 10 ml serological pipet and centrifuged for 1 h at 4° C. at 60.000 g. A final resuspension was performed in a small volume of ice-cold Tris buffer (see above) by pressing through a serological pipet followed by ultrasonic treatment with a Branson Sonifier W-250 (Settings: Timer 1; Output Control 3; Duty Cycle constant; 1 cycle). Protein concentration was determined (BCA-Kit; Pierce) and aliquots stored at −80° C. or in liquid nitrogen for long-term storage.
All receptor binding experiments were carried out in the corresponding assay buffer in a total volume of 200 μl in the presence of various concentrations of test compound (10^−5 M to 10^−9 M, tenfold serial dilution, duplicate determinations). The assays were terminated by filtration on polyethylenimine (PEI 0.1% or 0.3%) presoaked Packard Unifilter Plates (GF/C or GF/B) with a Tomtec Machin U 96 well-plate harvester. After the plates had been dried for 2 h at 55° C. in a drying chamber scintillation cocktail (BetaPlate Scint; PerkinElmer) was added. Radioactivity was measured in a Microbeta Trilux two hours after the addition of the scintillation mixture. Data derived from liquid scintillation counting were analysed by iterative non-linear regression analysis with the use of the Statistical Analysis System (SAS): a program similar to “LIGAND” as described by Munson and Rodbard (Analytical Biochemistry 107, 220-239 (1980).
HEK293 cells stably expressing the h-5-HT6 receptor (NCBI Reference Sequence XM 001435) were cultured in RPMI1640 medium supplemented with 25 mM HEPES, 10% fetal calf serum and 1-2 mM glutamine. The membrane preparation was performed as described in section 1. […] Non-specific binding was defined with 1 μM methiothepin. The binding reaction was carried out for 3.5 h at room temperature. During the incubation, the plates were shaken on a plate shaker at 100 rpm and terminated by filtration on Packard Unifilter GF/C (0.1% PEI) plates, followed by 2 wash cycles with ice-cold 50 mM Tris-HCl, 5 mM CaCl2.
Data derived from liquid scintillation counting were analyzed by iterative non-linear regression analysis with the use of the Statistical Analysis System (SAS): a program similar to “LIGAND” as described by Munson and Rodbard (Anal. Biochem. 1980, 107, 220-239). Fitting was performed according to formulae described by Feldman (Anal. Biochem. 1972, 48, 317-338). IC50, nH and Ki values were expressed as geometrical mean.

T1 sequence (P50406 whole entry): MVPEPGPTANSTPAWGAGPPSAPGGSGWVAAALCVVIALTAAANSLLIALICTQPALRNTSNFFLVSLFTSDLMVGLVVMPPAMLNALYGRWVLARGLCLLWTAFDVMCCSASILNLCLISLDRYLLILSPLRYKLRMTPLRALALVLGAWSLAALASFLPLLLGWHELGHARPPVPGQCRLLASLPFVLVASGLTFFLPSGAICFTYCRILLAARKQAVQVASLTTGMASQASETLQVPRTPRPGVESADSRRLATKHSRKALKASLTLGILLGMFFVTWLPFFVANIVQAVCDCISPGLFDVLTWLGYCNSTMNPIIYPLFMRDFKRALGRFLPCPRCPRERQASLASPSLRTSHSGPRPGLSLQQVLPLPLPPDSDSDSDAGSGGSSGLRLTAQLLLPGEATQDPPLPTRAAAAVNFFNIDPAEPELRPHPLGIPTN

| Compound | Ki |
| --- | --- |
| Cc1ccc(S(=O)(=O)Nc2cccc(OC(F)F)c2)cc1N1CCNCC1 [Example 1, N-(3-Difluoromethoxy-phenyl)-4-methyl-3-piperazin-1-yl-benzenesulfonamide hydrochloride] | < 10 nM |
| Cc1ccc(S(=O)(=O)Nc2ccc(OC(F)F)cc2)cc1N1CCNCC1 [Example 7, N-(4-Difluoromethoxy-phenyl)-4-methyl-3-piperazin-1-yl-benzenesulfonamide hydrochloride] | < 50 nM |
| Cc1ccc(S(=O)(=O)Nc2ccccc2OC(F)F)cc1N1CCNCC1 [Example 17, N-(2-Difluoromethoxy-phenyl)-4-methyl-3-piperazin-1-yl-benzenesulfonamide hydrochloride] | < 10 nM |

Same assay, conditions: membranes of HEK293 cells expressing h-5-HT6 receptor, 1 nM [3H]-LSD; read-out: Ki (5HT6)

| Ki | Compound |
| --- | --- |
| < 50 nM | Cc1ccc(S(=O)(=O)Nc2ccccc2OC(F)F)cc1N1CCN(C)CC1 [Example 5, N-(2-Difluoromethoxy-phenyl)-4-methyl-3-(4-methyl-piperazin-1-yl)-benzenesulfonamide hydrochloride] |
| < 50 nM | Cc1ccc(NS(=O)(=O)c2ccc(C)c(N3CCNCC3)c2)cc1OC(F)F [Example 6, N-(3-Difluoromethoxy-4-methyl-phenyl)-4-methyl-3-piperazin-1-yl-benzene-sulfonamide hydrochloride] |
| < 500 nM | Cc1ccc(S(=O)(=O)Nc2cccc3c2OC(F)(F)O3)cc1N1CCNCC1 [Example 8, N-(2,2-Difluoro-benzo[1,3]dioxol-4-yl)-4-methyl-3-piperazin-1-yl-benzenesulfonamide hydrochloride] |
| < 500 nM | Cc1ccc(S(=O)(=O)N(CC2CC2)c2ccccc2OC(F)F)cc1N1CCNCC1 [Example 9, N-Cyclopropylmethyl-N-(2-difluoromethoxy-phenyl)-4-methyl-3-piperazin-1-yl-benzenesulfonamide hydrochloride] |
| < 50 nM | Cc1ccc(S(=O)(=O)N(CC2CC2)c2cccc(OC(F)F)c2)cc1N1CCNCC1 [Example 10, N-Cyclopropylmethyl-N-(3-difluoromethoxy-phenyl)-4-methyl-3-piperazin-1-yl-benzenesulfonamide hydrochloride] |
| < 500 nM | CCCN(c1ccccc1OC(F)F)S(=O)(=O)c1ccc(C)c(N2CCNCC2)c1 [Example 11, N-(2-Difluoromethoxy-phenyl)-4-methyl-3-piperazin-1-yl-N-propyl-benzene-sulfonamide hydrochloride] |
| < 50 nM | CCCN(c1cccc(OC(F)F)c1)S(=O)(=O)c1ccc(C)c(N2CCNCC2)c1 [Example 12, N-(3-Difluoromethoxy-phenyl)-4-methyl-3-piperazin-1-yl-N-propyl-benzenesulfonamide hydrochloride] |
| < 50 nM | CCN(c1cccc(OC(F)F)c1)S(=O)(=O)c1ccc(C)c(N2CCNCC2)c1 [Example 13, N-(3-Difluoromethoxy-phenyl)-N-ethyl-4-methyl-3-piperazin-1-yl-benzene sulfonamide hydrochloride] |
| < 100 nM | Cc1ccc(S(=O)(=O)N(C)c2cccc(OC(F)F)c2)cc1N1CCNCC1 [Example 14, N-(3-Difluoromethoxy-phenyl)-4,N-dimethyl-3-piperazin-1-yl-benzenesulfonamide hydrochloride] |
| < 500 nM | CCN(c1ccccc1OC(F)F)S(=O)(=O)c1ccc(C)c(N2CCNCC2)c1 [Example 15, N-(2-Difluoromethoxy-phenyl)-N-ethyl-4-methyl-3-piperazin-1-yl-benzene sulfonamide hydrochloride] |
| < 500 nM | Cc1ccc(S(=O)(=O)N(C)c2ccccc2OC(F)F)cc1N1CCNCC1 [Example 16, N-(2-Difluoromethoxy-phenyl)-N-methyl-4-methyl-3-piperazin-1-yl-benzene sulfonamide hydrochloride] |
| < 10 nM | COc1ccc(S(=O)(=O)Nc2ccc(C)c(OC(F)F)c2)cc1N1CCNCC1 [Example 18, N-(3-Difluoromethoxy-4-methyl-phenyl)-4-methoxy-3-piperazin-1-yl-benzene-sulfonamide hydrochloride] |
| < 10 nM | COc1ccc(S(=O)(=O)Nc2cccc(OC(F)F)c2)cc1N1CCNCC1 [Example 24, N-(3-Difluoromethoxy-phenyl)-4-methoxy-3-piperazin-1-yl-benzenesulfonamide hydrochloride] |
| < 10 nM | COc1ccc(NS(=O)(=O)c2ccc(OC)c(N3CCNCC3)c2)cc1OC(F)F [Example 25, N-(3-Difluoromethoxy-4-methoxy-phenyl)-4-methoxy-3-piperazin-1-yl-benzenesulfonamide hydrochloride] |
| < 10 nM | COc1ccc(S(=O)(=O)Nc2ccccc2OC(F)F)cc1N1CCNCC1 [Example 26, N-(2-Difluoromethoxy-phenyl)-4-methoxy-3-piperazin-1-yl-benzenesulfonamide hydrochloride] |
| < 50 nM | COc1ccc(S(=O)(=O)N(C)c2ccccc2OC(F)F)cc1N1CCNCC1 [Example 27, N-(2-Difluoromethoxy-phenyl)-4-methoxy-N-methyl-3-piperazin-1-yl-benzenesulfonamide hydrochloride] |
| < 50 nM | COc1ccc(N(C)S(=O)(=O)c2ccc(OC)c(N3CCNCC3)c2)cc1OC(F)F [Example 28, N-(3-Difluoromethoxy-4-methoxy-phenyl)-4-methoxy-N-methyl-3-piperazin-1-yl-benzenesulfonamide hydrochloride] |
| < 10 nM | CCN(c1cccc(OC(F)F)c1)S(=O)(=O)c1ccc(OC)c(N2CCNCC2)c1 [Example 29, N-(3-Difluoromethoxy-phenyl)-N-ethyl-4-methoxy-3-piperazin-1-yl-benzenesulfonamide hydrochloride] |
| < 10 nM | CCN(c1ccc(OC)c(OC(F)F)c1)S(=O)(=O)c1ccc(OC)c(N2CCNCC2)c1 [Example 30, N-(3-Difluoromethoxy-4-methoxy-phenyl)-N-ethyl-4-methoxy-3-piperazin-1-yl-benzenesulfonamide hydrochloride] |
| < 50 nM | CCN(c1ccccc1OC(F)F)S(=O)(=O)c1ccc(OC)c(N2CCNCC2)c1 [Example 31, N-(2-Difluoromethoxy-phenyl)-N-ethyl-4-methoxy-3-piperazin-1-yl-benzenesulfonamide hydrochloride] |
| < 10 nM | COc1ccc(S(=O)(=O)N(C)c2cccc(OC(F)F)c2)cc1N1CCNCC1 [Example 32, N-(3-Difluoromethoxy-phenyl)-4-methoxy-N-methyl-3-piperazin-1-yl-benzenesulfonamide hydrochloride] |
| < 10 nM | CCCN(c1ccc(OC)c(OC(F)F)c1)S(=O)(=O)c1ccc(OC)c(N2CCNCC2)c1 [Example 33, N-(3-Difluoromethoxy-4-methoxy-phenyl)-4-methoxy-3-piperazin-1-yl-N-propyl-benzenesulfonamide hydrochloride] |
| < 10 nM | CCCN(c1cccc(OC(F)F)c1)S(=O)(=O)c1ccc(OC)c(N2CCNCC2)c1 [Example 34, N-(3-Difluoromethoxy-phenyl)-4-methoxy-3-piperazin-1-yl-N-propyl-benzenesulfonamide hydrochloride] |
| < 10 nM | COc1ccc(S(=O)(=O)Nc2cccc(OC(F)F)c2)cc1N1CCN(C)CC1 [Example 35, N-(3-Difluoromethoxy-phenyl)-4-methoxy-3-(4-methyl-piperazin-1-yl)-benzenesulfonamide hydrochloride] |
| < 10 nM | CCCN(c1ccccc1OC(F)F)S(=O)(=O)c1ccc(OC)c(N2CCNCC2)c1 [Example 36, N-(2-Difluoromethoxy-phenyl)-4-methoxy-3-piperazin-1-yl-N-propyl-benzenesulfonamide hydrochloride] |
